{"source": "patent US20260234124A1", "about": "“Substituted Pyrazolyl-Pyridinyl Compounds as Ligand Directed Degraders of IRAK3” (Celgene Corporation, priority 2022, published 2026)", "data": [{"biological_target": "T1, IRAK3 (Homo sapiens, UniProt Q9Y616)", "T1 sequence (Q9Y616 1-596)": "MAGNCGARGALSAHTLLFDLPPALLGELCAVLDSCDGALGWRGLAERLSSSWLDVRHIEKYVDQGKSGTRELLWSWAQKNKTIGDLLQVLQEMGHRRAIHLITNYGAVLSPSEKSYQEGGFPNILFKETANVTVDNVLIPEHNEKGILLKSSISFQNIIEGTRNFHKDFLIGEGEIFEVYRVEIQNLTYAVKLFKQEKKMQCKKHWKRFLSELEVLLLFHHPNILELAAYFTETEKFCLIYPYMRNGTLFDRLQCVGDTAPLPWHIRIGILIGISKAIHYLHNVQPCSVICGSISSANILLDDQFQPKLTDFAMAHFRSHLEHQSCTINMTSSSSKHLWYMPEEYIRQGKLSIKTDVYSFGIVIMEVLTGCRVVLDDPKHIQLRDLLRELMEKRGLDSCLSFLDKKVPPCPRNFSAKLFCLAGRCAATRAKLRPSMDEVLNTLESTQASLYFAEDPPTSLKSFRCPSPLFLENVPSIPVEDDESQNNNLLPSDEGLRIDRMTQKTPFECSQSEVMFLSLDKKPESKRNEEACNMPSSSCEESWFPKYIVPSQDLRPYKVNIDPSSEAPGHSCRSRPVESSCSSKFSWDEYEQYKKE", "assay": "IRAK3 biochemical binding assay (LanthaScreen Eu Kinase Binding, TR-FRET)", "details": "10 nM tracer, 10 nM IRAK3, 1 hour at room temperature", "procedure": "Example B3. IRAK3 Biochemical Binding Assay\nThe LanthaScreen® Eu Kinase Binding assay was performed as described by the vendor (ThermoFisher Scientific Waltham, MA). Briefly, 100× solutions of compound were prepared in DMSO via serial dilution of the 10 mM stock solution in a 384-well reagent plate using 3-fold intervals to achieve final concentrations. 1 μL of the compound dilution series were added to the corresponding wells of a 384-well reagent plate containing 32.3 μL of 1× buffer (50 mM HEPES pH 7.4, […], 1 mM EGTA, 0.01% Brij-35). 5 μL of the buffer diluted compounds were transferred to the corresponding wells of a 384-well assay plate. 5 μL of 3× tracer was transferred to each well of the assay plate for a final tracer concentration of 10 nM. Finally, 5 μL of the 3× Eu-Anti-GST and IRAK3 mix was transferred to each well for a final concentration of 2 nM and 10 nM, respectively. Reactions were allowed to incubate for 1 hour at room temperature. TR-FRET signal of the interaction ([…]/λem 665/λem 615) was read at room temperature with a delay time of 100 μs and an integration time of 200 μs using an Envision plate reader. Background corrected emission signal ratios at each compound concentration were used to calculate percentage of inhibition (% o Inhibition). Plots of % Inhibition versus inhibitor concentrations were fit according to a dose-response equation (Eq. 1) to generate IC50 and Hill slope values using Dotmatics software (Dotmatics, Bishops Storford, Hertfordshire, England).\nUsing these assays, IC50, Dmax, EC50, and DC50 values of the following compounds were determined. Dmax is defined as the maximum percent degradation achieved and DC50 is the concentration at which 50% degradation is achieved.", "units": {"IC50": "nM"}, "values": [{"smiles": "C[C@@H](Oc1cc(-c2cnn(C3CCN(CCNC(=O)COc4ccc5c(c4)C(=O)N(C4CCC(=O)NC4=O)C5=O)CC3)c2)cnc1N)c1c(Cl)ccc(F)c1Cl", "note": "(stereo partly drawn) [Compound 13, N-(2-(4-(4-(6-amino-5-((R)-1-(2,6-dichloro-3-fluorophenyl)ethoxy)pyridin-3-yl)-1H-pyrazol-1-yl)piperidin-1-yl)ethyl)-2-((2-(2,6-dioxopiperidin-3-yl)-1,3-dioxoisoindolin-5-yl)oxy)acetamide]", "IC50": 16}, {"smiles": "C[C@@H](Oc1cc(-c2cnn(C3CCN(CCOCCOCCNC(=O)COc4ccc5c(c4)C(=O)N(C4CCC(=O)NC4=O)C5=O)CC3)c2)cnc1N)c1c(Cl)ccc(F)c1Cl", "note": "(stereo partly drawn) [Compound 15, N-(2-(2-(2-(4-(4-(6-amino-5-((R)-1-(2,6-dichloro-3-fluorophenyl)ethoxy)pyridin-3-yl)-1H-pyrazol-1-yl)piperidin-1-yl)ethoxy)ethoxy)ethyl)-2-((2-(2,6-dioxopiperidin-3-yl)-1,3-dioxoisoindolin-5-yl)oxy)acetamide]", "IC50": 64}, {"smiles": "C[C@@H](Oc1cc(-c2cnn(C3CCN(CCOCCOCCOCCOCCNC(=O)COc4ccc5c(c4)C(=O)N(C4CCC(=O)NC4=O)C5=O)CC3)c2)cnc1N)c1c(Cl)ccc(F)c1Cl", "note": "(stereo partly drawn) [Compound 17, N-(14-(4-(4-(6-amino-5-((R)-1-(2,6-dichloro-3-fluorophenyl)ethoxy)pyridin-3-yl)-1H-pyrazol-1-yl)piperidin-1-yl)-3,6,9,12-tetraoxatetradecyl)-2-((2-(2,6-dioxopiperidin-3-yl)-1,3-dioxoisoindolin-5-yl)oxy)acetamide]", "IC50": 100}, {"smiles": "C[C@@H](Oc1cc(-c2cnn(C3CCN(CCOCCNC(=O)COc4ccc5c(c4)C(=O)N(C4CCC(=O)NC4=O)C5=O)CC3)c2)cnc1N)c1c(Cl)ccc(F)c1Cl", "note": "(stereo partly drawn) [Compound 14, N-(2-(2-(4-(4-(6-amino-5-((R)-1-(2,6-dichloro-3-fluorophenyl)ethoxy)pyridin-3-yl)-1H-pyrazol-1-yl)piperidin-1-yl)ethoxy)ethyl)-2-((2-(2,6-dioxopiperidin-3-yl)-1,3-dioxoisoindolin-5-yl)oxy)acetamide]", "IC50": 70}, {"smiles": "Cc1ncsc1-c1ccc(CNC(=O)[C@@H]2C[C@@H](O)CN2C(=O)[C@@H](NC(=O)COCCOCCOCCOCCN2CCC(n3cc(-c4cnc(N)c(O[C@H](C)c5c(Cl)ccc(F)c5Cl)c4)cn3)CC2)C(C)(C)C)cc1", "note": "[Compound 4, (2S,4R)-1-((S)-17-(4-(4-(6-amino-5-((R)-1-(2,6-dichloro-3-fluorophenyl)ethoxy)pyridin-3-yl)-1H-pyrazol-1-yl)piperidin-1-yl)-2-(tert-butyl)-4-oxo-6,9,12,15-tetraoxa-3-azaheptadecanoyl)-4-hydroxy-N-(4-(4-methylthiazol-5-yl)benzyl)pyrrolidine-2-carboxamide]", "IC50": 120}, {"smiles": "C[C@@H](Oc1cc(-c2cnn(C3CCN(CCOCCNC(=O)COc4cccc5c4C(=O)N(C4CCC(=O)NC4=O)C5=O)CC3)c2)cnc1N)c1c(Cl)ccc(F)c1Cl", "note": "(stereo partly drawn) [Compound 9, N-(2-(2-(4-(4-(6-amino-5-((R)-1-(2,6-dichloro-3-fluorophenyl)ethoxy)pyridin-3-yl)-1H-pyrazol-1-yl)piperidin-1-yl)ethoxy)ethyl)-2-((2-(2,6-dioxopiperidin-3-yl)-1,3-dioxoisoindolin-4-yl)oxy)acetamide]", "IC50": 45}, {"smiles": "C[C@@H](Oc1cc(-c2cnn(C3CCN(CCOCCOCCNC(=O)COc4cccc5c4C(=O)N(C4CCC(=O)NC4=O)C5=O)CC3)c2)cnc1N)c1c(Cl)ccc(F)c1Cl", "note": "(stereo partly drawn) [Compound 10, N-(2-(2-(2-(4-(4-(6-amino-5-((R)-1-(2,6-dichloro-3-fluorophenyl)ethoxy)pyridin-3-yl)-1H-pyrazol-1-yl)piperidin-1-yl)ethoxy)ethoxy)ethyl)-2-((2-(2,6-dioxopiperidin-3-yl)-1,3-dioxoisoindolin-4-yl)oxy)acetamide]", "IC50": 27}]}]}
